Assay results reported in publication PMC4579064 (Toxicology and applied pharmacology, 2015).

How the values were obtained:
human liver microsomes = test: paraoxon formation from parathion; format: biochemical
CYP2B6 = target: T1, CYP2B6 (Homo sapiens, UniProt P20813)
T1 sequence (P20813 1-491): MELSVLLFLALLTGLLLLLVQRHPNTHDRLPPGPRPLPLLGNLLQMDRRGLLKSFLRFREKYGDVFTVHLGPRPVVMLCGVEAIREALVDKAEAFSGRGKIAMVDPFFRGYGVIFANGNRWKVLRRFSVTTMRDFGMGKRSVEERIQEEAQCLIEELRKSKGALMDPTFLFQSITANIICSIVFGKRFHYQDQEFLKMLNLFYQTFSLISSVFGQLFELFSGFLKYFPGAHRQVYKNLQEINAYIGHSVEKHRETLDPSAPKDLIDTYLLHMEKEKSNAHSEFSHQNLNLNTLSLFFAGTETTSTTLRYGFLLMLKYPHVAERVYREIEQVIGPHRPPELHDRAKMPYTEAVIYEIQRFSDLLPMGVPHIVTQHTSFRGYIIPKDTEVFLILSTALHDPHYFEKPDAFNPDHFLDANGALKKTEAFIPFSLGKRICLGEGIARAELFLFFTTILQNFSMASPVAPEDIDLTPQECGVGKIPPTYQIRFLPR

CYP1A1 = target: T2, CYP1A1 (Homo sapiens, UniProt P04798); test: recombinant CYP activity with fluorogenic substrate
T2 sequence (P04798 1-512): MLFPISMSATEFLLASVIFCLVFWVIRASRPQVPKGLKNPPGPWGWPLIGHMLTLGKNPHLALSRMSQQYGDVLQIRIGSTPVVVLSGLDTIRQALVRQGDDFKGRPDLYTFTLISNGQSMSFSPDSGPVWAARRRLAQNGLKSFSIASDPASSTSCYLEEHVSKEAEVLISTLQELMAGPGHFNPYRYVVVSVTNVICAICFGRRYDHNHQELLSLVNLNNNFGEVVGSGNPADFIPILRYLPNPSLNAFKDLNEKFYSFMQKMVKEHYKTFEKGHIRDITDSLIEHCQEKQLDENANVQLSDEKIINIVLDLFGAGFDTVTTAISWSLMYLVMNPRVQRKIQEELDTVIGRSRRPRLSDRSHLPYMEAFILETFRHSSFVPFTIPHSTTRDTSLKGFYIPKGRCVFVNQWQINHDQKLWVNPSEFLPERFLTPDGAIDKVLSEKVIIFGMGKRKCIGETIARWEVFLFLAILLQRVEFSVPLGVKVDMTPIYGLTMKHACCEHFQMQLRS
T2 sequence (P16435 2-677 partner): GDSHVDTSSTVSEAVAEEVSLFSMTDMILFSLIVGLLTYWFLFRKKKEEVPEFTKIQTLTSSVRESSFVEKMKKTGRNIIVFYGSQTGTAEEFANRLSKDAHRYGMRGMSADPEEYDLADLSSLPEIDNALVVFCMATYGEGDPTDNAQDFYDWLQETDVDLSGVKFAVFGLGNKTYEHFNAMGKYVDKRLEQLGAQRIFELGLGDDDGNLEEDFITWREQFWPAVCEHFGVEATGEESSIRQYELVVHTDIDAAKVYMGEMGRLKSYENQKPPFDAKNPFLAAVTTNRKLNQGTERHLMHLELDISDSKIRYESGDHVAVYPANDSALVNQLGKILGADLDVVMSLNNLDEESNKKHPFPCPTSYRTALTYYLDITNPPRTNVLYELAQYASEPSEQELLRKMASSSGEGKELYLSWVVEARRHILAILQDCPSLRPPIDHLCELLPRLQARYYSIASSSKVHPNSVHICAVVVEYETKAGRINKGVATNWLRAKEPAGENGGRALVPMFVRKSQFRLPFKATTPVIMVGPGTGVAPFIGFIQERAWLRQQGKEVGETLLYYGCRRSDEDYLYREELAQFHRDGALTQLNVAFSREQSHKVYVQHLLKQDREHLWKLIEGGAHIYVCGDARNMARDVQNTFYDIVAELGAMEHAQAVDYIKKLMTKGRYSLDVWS

CYP1A2 = target: T3, CYP1A2 (Homo sapiens, UniProt P05177); test: as above
T3 sequence (P05177 2-516 limits assumed): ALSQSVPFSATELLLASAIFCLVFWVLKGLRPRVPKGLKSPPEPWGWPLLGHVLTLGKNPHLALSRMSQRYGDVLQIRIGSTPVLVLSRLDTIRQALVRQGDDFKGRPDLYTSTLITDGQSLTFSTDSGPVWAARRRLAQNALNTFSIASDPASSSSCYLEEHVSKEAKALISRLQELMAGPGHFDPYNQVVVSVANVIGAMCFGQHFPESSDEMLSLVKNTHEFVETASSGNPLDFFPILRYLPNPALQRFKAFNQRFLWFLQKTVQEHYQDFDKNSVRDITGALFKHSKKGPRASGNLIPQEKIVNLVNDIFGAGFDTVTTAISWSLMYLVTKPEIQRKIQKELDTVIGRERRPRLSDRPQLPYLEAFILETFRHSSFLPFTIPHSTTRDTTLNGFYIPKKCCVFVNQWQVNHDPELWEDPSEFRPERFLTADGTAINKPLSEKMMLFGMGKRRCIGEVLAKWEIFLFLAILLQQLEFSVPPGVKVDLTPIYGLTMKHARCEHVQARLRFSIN

CYP2D6 = CYP2D6 (Homo sapiens, UniProt P10635); test: as above
Chain of CYP2D6 (P10635 whole entry, one chain of several): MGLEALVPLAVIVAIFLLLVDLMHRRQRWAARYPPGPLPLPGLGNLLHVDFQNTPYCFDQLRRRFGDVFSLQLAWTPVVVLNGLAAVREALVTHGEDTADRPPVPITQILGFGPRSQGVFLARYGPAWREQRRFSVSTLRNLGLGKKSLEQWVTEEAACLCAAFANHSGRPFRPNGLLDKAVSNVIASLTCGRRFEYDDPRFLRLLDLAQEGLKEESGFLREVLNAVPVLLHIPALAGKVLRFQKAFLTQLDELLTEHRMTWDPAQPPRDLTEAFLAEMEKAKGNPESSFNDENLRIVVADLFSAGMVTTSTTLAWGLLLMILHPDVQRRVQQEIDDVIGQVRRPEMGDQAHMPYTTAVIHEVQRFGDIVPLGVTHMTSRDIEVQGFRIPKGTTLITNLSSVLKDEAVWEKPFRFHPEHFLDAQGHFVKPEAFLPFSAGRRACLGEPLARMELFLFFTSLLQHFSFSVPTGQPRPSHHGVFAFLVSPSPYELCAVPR

CC1=CC(=O)c2ccccc2C1=O [menadione, 2-methylnaphthalene-1,4-dione]
paraoxon formation (human liver microsomes): marked decrease
paraoxon formation (CYP2B6): marked decrease
IC50 (CYP1A1): 4.39 ± 0.42 µM
IC50 (CYP1A2): 4.51 ± 0.57 µM
IC50 (CYP2D6): 4.6 ± 0.87 µM
